The values that follow come from patent US20240341301A1 (The Regents of the University of Michigan, priority 2023, published 2024).

For data set [1], the system named is murine donor hearts. Briefly: Murine ex-vivo heart perfusion after cold preservation. The arrangement: species or system mouse. Particulars: for ex vivo donor heart contractility / ex vivo donor heart relaxation: HDAC inhibitor in HTK, 16 hours cold preservation. The protocol: (§1) Male and female WT or Irg1^−/− mice (Jackson laboratories, Bar Harbor, ME) were anesthetized intraperitoneally with 80 mg/kg ketamine and 5 mg/kg xylazine, anticoagulated with heparin (2,000 U/kg iv), and the heart was rapidly exposed through a sternal incision. The aorta was cannulated and retrograde perfused in-situ with HTK solution±HDAC inhibitors. After cannulation, the heart dissected free, the left atrium was opened. For 4-OI (Cayman Chemical, 25374) experiments, donor mice were treated 4-OI (dissolved in 40% β-Cyclodextrin, 50 mg/kg intraperitoneally) or vehicle control (40% β-Cyclodextrin intraperitoneally) 2 hours prior to donor heart procurement. After dissection, the heart was stored at 4° C. with HTK or HTK with VPA for a pre-designated duration. The hearts were then mounted on a Radnoti mouse Langendorff apparatus (ADInstruments inc., Colorado Springs, CO) in constant-pressure mode (˜70 mmHg) with a modified Krebs-Henseleit buffer (KHB; in mM: 118 NaCl, 4.7 KCl, 1.25 CaCl2), 1.66 MgSO4, 24.88 NaHCO3, 1.18 KH2PO4, 5.55 glucose, and 2.0 Na-pyruvate). A balloon was placed in the LV through the left atrium and left ventricular diastolic pressure was set to ˜8 mmHg at initiation. The heart was perfused with modified Krebs-Henseleit buffer for 30 min to stabilize and then hemodynamics measurements were recorded. Myocardial temperature was maintained at 37° C. LabChart software (ADInstruments inc., Colorado Springs, CO) was used to record ventricular function, perfusion pressures, cardiac chamber temperature and myocardial temperature. After perfusing the heart for 60 minutes, the heart was removed from the ex-vivo perfusion apparatus for specimen collection. Tissue was immediately placed in liquid N2 or treated with 4% formalin.

For data set [2], the system named is murine donor hearts. Briefly: Murine donor heart tissue staining and Western blot (oxidative stress, antioxidant proteins, cell death). Particulars: donor mice treated with 4-OI. On the set-up: species or system mouse. The protocol:
as §1
On the technique in general: A western blot detects proteins with antibodies after separation by electrophoresis.

Data set [3] has as its system HL-1 murine cardiomyocytes. Briefly: HL-1 cardiomyocytes in HTK under normoxic or hypoxic conditions, Western blot. In kind it is cell-based, mouse. Particulars: for HO1 protein abundance / NRF2 / SOD1 protein abundance: normoxic and hypoxic conditions. How it is done: HL-1 murine cardiomyocytes cells (Sigma-Aldrich, SCC065) were cultured in Claycomb Medium (Sigma-Aldrich, 51800C). […] The medium was then changed to cold HTK solution and incubated in an hypoxic incubation chamber (Stem cell technologies). The chamber cold hypoxic conditions consist premixed of 1% Oxygen and 5% Carbon dioxide gas (Cryogenic gases, Detroit MI) with cell culture at 4° C. for 2 hours. After cold preservation culture, the medium was changed to 37° C. DMEM at atmospheric conditions and cells were incubated for an additional 2 hours. Cell lysates were then collected for Western blot analysis.

The test system of another data set is H9C2 cardioblast. Briefly: Doxorubicin-treated H9C2 cardioblast. Type of data set: cell-based. Conditions: 1 μM doxorubicin. How it is done: FIG. 18. FIG. 4. […] The doxorubicin-induced cell death were evaluated by cleaved caspase 3 using western blot.
FIG. 19. FIG. 4. […] The 5-hmC level were detected using immunostaining.

The test system of the next data set is Irg1. The data set is described as follows: Irg1 mRNA transcript expression in preserved murine donor hearts. Conditions: 16 hours preservation without reperfusion and during ex vivo perfusion. On the set-up: species or system mouse. How it is done: as §1
The conditions of data set [4]: cited from earlier work.
For the next data set, the system named is mice. Briefly: Doxorubicin-induced cardiotoxicity in mice. Type of data set: in vivo, mouse. Particulars: 5 mg/Kg doxorubicin for 5 weeks, I.P. every 3.5 days. The protocol:
FIG. 16. […] 6-week mice were treated with 5 mg/Kg doxorubicin for 5 weeks. […] There are improved ejection fraction, stroke volume, and increased heart and lung weight in itaconate-treated groups compared to saline-treated groups.
FIG. 17. […] 6-week mice were treated with 5 mg/Kg doxorubicin for 5 weeks.

Setting [5] is: donor mice treated 4-OI 50 mg/kg intraperitoneally 2 hours prior to procurement, 16 hours of preservation, ex vivo perfusion.
Setting [6] is: compared to saline-treated groups.

With `C=C(CC(=O)OCCCCCCCC)C(=O)O` [4-OI, 4-octyl itaconate], in the data set with murine donor hearts [1] (setting [5]), the cardiac contractility result is on record as “improved” and the cardiac relaxation entry is recorded as “improved”. For the same molecule, in the data set with murine donor hearts [2], the “NRF2 nuclear translocation in cardiac tissue” value is given as “increased” and the “oxidative DNA damage (8-OHdG fluorescence)” value is listed as “reduced”. For the same molecule, in data set [3], the HO1 protein abundance entry is listed as “enhanced”, the NRF2 result is “no changes” and the SOD1 protein abundance entry is given as “enhanced”.

For the molecule `COc1cccc2c1C(=O)c1c(O)c3c(c(O)c1C2=O)C[C@@](O)(C(=O)CO)C[C@@H]3O[C@H]1C[C@H](N)[C@H](O)[C@H](C)O1` [Doxorubicin, doxorubicin], the 5-hmC level result in the data set with H9C2 cardioblast (immunostaining) was “induces accumulation”.

For the molecule `O=C(CCCCCCC(=O)Nc1ccccc1)NO` [SAHA, Suberoylanilide hydroxamic acid], in the data set on murine donor hearts [1], the “ex vivo donor heart contractility” value is “improved” and the “ex vivo donor heart relaxation” value is “improved”. Besides, the Irg1 transcript expression result in the data set with Irg1 is recorded as “increased”. Moreover, the water solubility entry in data set [4] is recorded as “poorly water soluble”.

Regarding `CC(/C=C/C(=O)NO)=C\[C@@H](C)C(=O)c1ccc(N(C)C)cc1` [TSA, Trichostatin A], in the data set on murine donor hearts [1], the “ex vivo donor heart contractility” value is “improved” and the “ex vivo donor heart relaxation” value was “improved”. In the data set with Irg1, the Irg1 transcript expression result is recorded as “increased”. Also, the water solubility result in data set [4] is given as “poorly water soluble”.

For `C=C(CC(=O)O)C(=O)O` [itaconate], the “murine donor heart function” value in the data set with murine donor hearts [1] (after 16 hours of storage) is given as “improved”. Further, the “antioxidant expression (HO1, SOD1)” value in data set [3] (itaconate 10 mM in HTK, normoxic (20% O2) and hypoxic (1% O2), 2 hours) is listed as “increased”. Also, in data set [3], the HO1 protein abundance result is “enhanced”, the NRF2 entry is “no changes” and the SOD1 protein abundance entry is “enhanced”. The “serum cTnI level” value with mice was “reduced”. In the data set on mice (setting [6]), the ejection fraction result was “improved”; the “heart and lung weight” value was “increased”; the stroke volume entry is “improved”. Further, the “cardiomyocyte apoptosis (cleaved caspase 3, western blot)” value in the data set with H9C2 cardioblast (2 mM itaconate, 18 hours) was “reduced”. Besides, the “doxorubicin induced 5-hmC accumulation” value with H9C2 cardioblast (2 mM itaconate, immunostaining) was “reduce”.
